# Experiments:
# Type in all cases: functional, cell-based
# [1] = tested on: SGC-7901; assay: Antiproliferative activity against human SGC7901 cells by MTT assay
# [2] = tested on: HL-60; assay: Antiproliferative activity against human HL60 cells by tryphan blue assay
# [3] = tested on: PC-3; assay: Antiproliferative activity against human PC3 cells by MTT assay
Structure (SMILES),IC50 [1] [µM],IC50 [2] [µM],IC50 [3] [µM]
COC(=O)N1c2cc(OC)ccc2[C@]2(O)CCN[C@]12C,> 10,> 10,> 10
COc1ccc2c3c([nH]c2c1)C(c1cnc2ccccc2c1)=NCC3,> 10,> 10,> 10
COc1cc(Cc2cnc(C)s2)cc(OC)c1O,> 10,> 10,> 10
COC(=O)N1c2cc(OC)ccc2[C@@]2(O)CCN[C@@]12C,> 10,> 10,> 10
COc1ccc2c3c([nH]c2c1)-c1nc2ccccc2c(=O)n1CC3,> 10,> 10,> 10
COc1ccc2c(c1)[nH]c1c(CO)nccc12,–,4.36,–
COC(=O)c1nccc2c1[nH]c1cc(OC)ccc12 [HARMIC ACID METHYL ESTER],> 10,> 10,> 10
COc1ccc2c3c([nH]c2c1)C(C)=[N+]([O-])CC3,> 10,> 10,> 10
COc1ccc2c3c([nH]c2c1)-c1cc(CO)cc(=O)n1CC3,> 10,> 10,> 10
Cc1nccc2c1[nH]c1ccccc12 [HARMAN],> 10,> 10,> 10
COc1ccc2c(c1)[nH]c1c(C(N)=O)nccc12,> 10,> 10,> 10
COc1ccc2c3c([nH]c2c1)C(=O)NCC3,> 10,> 10,> 10
COc1ccc2c(c1)[nH]c1c(C)[n+]([O-])ccc12,> 10,> 10,> 10
COc1ccc2c3ccnc4cc(C)c(=O)n(c2c1)c43,> 10,> 10,> 10
CCc1nccc2c1[nH]c1cc(OC)ccc12,–,9.05,–
COc1ccc2c3c([nH]c2c1)C(C)=NCC3 [HARMALINE],> 10,> 10,> 10
COC(=O)/C=C1/c2[nH]c3cc(OC)ccc3c2CCN1C(C)=O,> 10,> 10,> 10
COc1cc(Cc2cncs2)cc(OC)c1O,> 10,> 10,> 10
COc1ccc2c(c1)[nH]c1c(C(C)=O)nccc12 [ARENARINE C],> 10,> 10,> 10
COC(=O)N1CC[C@]2(O)c3ccc(OC)cc3N(C(=O)OC)[C@]12C,> 10,> 10,> 10
COc1ccc2c3c([nH]c2c1)-c1cccc(=O)n1CC3,–,9.25,–
COC(=O)N1CC[C@@]2(O)c3ccc(OC)cc3N(C(=O)OC)[C@@]12C,> 10,> 10,> 10
